# Columns and labels:
# [1] = tested on: SW26 cells; test: Frequency of escape from crisis (immortalization) of SW26 cells, fluctuation analysis; format: cell-based, human; details: bleomycin sulfate 25 μg/ml for two hours; LNL6 infection with 2 μg/ml polybrene
# Excerpt: The frequency of escape from crisis (e.g., the immortalization frequency of T-antigen expressing cells) was estimated using an approach based on what is essentially a fluctuation analysis as previously described (Shay, J. W., and Wright, W. E. (1989) Exp. Cell Res. 184, 109-118). SW26 cells (a clone isolated from IMR 90 normal human lung fibroblasts transfected with a vector expressing SV40 large T antigen) were expanded approximately 15 PDL's before crisis into multiple series at a constant cell density of 6667 cells/cm^2. Each series was subsequently maintained as a separate culture, so that at the end of the experiment the fraction of each series that gave rise to immortal cell lines could be determined. Cultures were split at or just prior to confluence at 6667 cells/cm^2. […]
# The remainder of the dishes were used as controls (70 dishes) or infected with LNL6 defective retrovirus (100 dishes). […] Within a few days after infection, all control and experimental dishes were counted and each dish contained 1-2×10^6 cells. The PDL of each dish was calculated and cells were then replated at 0.33×10^6 in 50 cm^2 dishes and maintained separately to conduct the fluctuation analysis.
# Immortalization is expressed as the number of immortal lines per number of culture series, each series being derived from a single dish at the initiation of the experiment. […]
# [2] = tested on: IMR-90 SW26 cells; test: Cell death of IMR-90 SW26 cells on bleomycin sulfate treatment; format: cell-based, human; details: 25 μg/ml for two hours in serum free medium
# Procedure: SW 26 cells enter crisis at approximately PDL 82-85. Numerous vials of SW26 cells (8×10^6 cells/vial) were frozen at PDL 71, and testing verified that spontaneous immortalization events had not yet occurred. Five vials were thawed, scaled up for 4 days to approximately 10^8 cells (thus to approximately PDL 74), then trypsinized and combined into a single pool of cells in 40 ml of medium and distributed into 200 10 cm^2 dishes. Thirty dishes were treated with 25 μg/ml bleomycin sulfate (a chemical mutagen) for two hours in serum free medium one day later.
# [3] = tested on: IMR-90 human lung fibroblasts; test: Proliferative lifespan of IMR-90 fibroblasts fed oligonucleotides (Example 1); format: cell-based
# Excerpt: The efficacy of the CTO-12 oligonucleotide (5′-[…]-3′ Seq. ID No. 2) to reduce telomere shortening associated with cellular senescence (FIG. 1) was studied using target cells cultured under standard cell culture conditions in minimal essential medium supplemented with 10% fetal calf serum. The cells were subcultivated every four days by trypsinization upon reaching confluency and were fed new medium at subcultivation or every two days, whichever came first. Cells at various population doubling levels were seeded at 10,000 cells per well and fed medium containing oligonucleotides at various concentrations. oligonucleotides studied were the cytidine-rich terminal oligonucleotide (CTO-12), guanidine-rich terminal oligonucleotide-12 bp (GTO-12, having the sequence 5′-[…]-3′ (SEQ ID NO:19), and a 12 base pair randomer with a random nucleotide in every position. As an additional control, cells were fed identical medium without oligonucleotide. Cells were fed oligonucleotide every 48 hours from 10×stocks. (Such oligonucleotides may be modified to enhance stability, e.g., with phosphorothioates, dithioate and 2-O-methyl RNA.) In the case of phosphorothioates it would be desirable to use longer CTO primers such as 5′-[…]-3′(SEQ ID NO:20), 5′-[…]-3′(SEQ ID NO:21), or 5′-[…]-3′(SEQ ID NO:22). […]
# [4] = tested on: MDA 157 human breast cancer cells; test: Proliferation of MDA 157 cancer cells fed oligonucleotides (Example 2); format: cell-based; details: 1.0 μM CTO-12
# Procedure: Specifically, MDA 157 human breast cancer cells with an immortal phenotype were seeded at 10,000 cells per well in 12 well tissue culture dishes and fed medium only or medium supplemented with GTO-12 (at 1.0 μM, 0.1 μM, and 0.01 μM). […] Cells fed the GTO-12 oligonucleotide, at 1.0 μM, however, ceased to proliferate after less than 10 doubling. […] The lack of effect of the G+C mixture may reflect the CTO-12 oligonucleotide, competing with or base pairing with the GTO-12 oligonucleotide, this preventing its inhibitory effect on the cancer cell telomerase.
# [5] = tested on: HME31E6 cells; test: Replicative lifespan of HME31E6 cells cultured with CTR (Example 10); format: cell-based, human; details: 30 μM and 100 μM
# Procedure: Human mammary epithelial cells expressing HPV16 E6 bypass M1 and have extended replicative lifespan. HME31 Cells normally senesce at PDL 42-45. When expressing […] they will bypass M1 and divide until they reach crisis (M2) at PDL 53-62. The TRFs in HME31 (E6) cells at PDL 40 are approximately 5-6 Kb while at PDL 62 they are 3-4 Kb (see FIG. 12). […] As controls, the cells were cultured without oligonucleotide (control), or with a 30 μM random oligonucleotide with the base content matched to the CTR oligonucleotide. […] The control cells divided approximately 20 times during the experiment, whereas the CTR-treated cells divided at least 40-50 times.
# [6] = tested on: IMR-90 lung fibroblasts; test: Life span of IMR-90 lung fibroblasts treated with phosphodiester CTO (Example 11); format: cell-based, human
# Procedure: Referring to FIG. 14, IMR-90 lung fibroblasts TRFat PDL 30 were treated with 10 μM, 30 μM or 100 μM phosphodiester CTO or with only media addition (control). The cells were cultured in medium containing regular defined supplemented calf serum. The cells were passaged in 24 well dishes and subcultivated by trypsinization upon reaching confluency at 25,000 cells per well. The cells were fed medium containing oligonucleotides at various concentrations daily. As a control, cells were fed identical medium without oligonucleotides. As is illustrated in FIG. 14, there was approximately a 12-15% extension of total life span with CTO. In these experiments the control cells divided approximately 15-18 times during the experiment, whereas the treated cells divided 23-26 times. IMR-90 telomeres shorten approximately 50 b.p. per division and the TRF length of the control IMR-90 fibroblasts at senescence was approximately 9 kb. Since the 100 μM CTO-treated IMR-90 cells senesced at PDL 55, the predicted difference in the rate of TRF loss between the control and the 100 μM CTO (9 kb vs 9.4 kb) is too small to be resolved using current techniques.
# [7] = tested on: HME31E6 cells; test: TRF shortening in HME31E6 cells cultured with CTO (Example 10); format: cell-based, human; details: 3, 10, 30 and 100 μM, between PDL 36 and 50
# Excerpt: As in Example 1, the change in proliferative lifespan and rate of telomere shortening in cultured mammary epithelial cells treated with the indicated amounts of CTO (occasionally referred to as C-Rich Terminal Repeat (CTR)) versus control random oligonucleotides. Normal human mammary epithelial cells from a donor (31) were infected with the E6 gene of human papilloma virus 16. This gene product binds p53 protein and permits HME31 cells to have extended life span by proliferating from PDL 42 to PDL 62 when crisis occurs. During this extended lifespan period the TRFs shorten from an average of approximately 5 kb to 2.5 kb (compare in FIG. 12 HME31 PD 40 to HME31E6 PD 68).
# As controls the cells were cultured without oligonucleotides (nil) or with 30 μM random oligonucleotide. […] This is most easily seen by examining the subpopulation of telomere TRFs that migrate more slowly than the rest, giving a discrete trailing band. Cells were maintained in logarithmic growth with medium changed and fresh oligonucleotide added three times per week.
substance,measurement,setting,value
bleomycin sulfate,Frequency (probability of obtaining an immortal cell line based on the number of cells plated at each passage),[1],7.7 × 10^−7
same,Immortalization (number of immortal lines per number of culture series),[1],7/27
same,cells dying,[2],approximately 50%
5′-CCCTAACCCTAA-3′ [CTO-12],doublings of continued proliferation more than control cells,"[3]; 1.0 μM oligonucleotide, cells seeded at PD45",approximately 10 doubling
same,population doubling at which replicative senescence was reached,"[3]; CTO-12 at less than 1.0 μM (0.1 μM), seeded at PD45",about 52 population doubling
same,proliferation phenotype,[4],continued to express the immortal phenotype
same,replicative lifespan compared to control and 30 μM random oligonucleotide,[5]; started at PDL 36,dose-related extension of the replicative lifespan
same,number of cell divisions during the experiment,"[5]; started at PDL 36, defined medium without serum",40-50 times
same,number of cell divisions during the experiment,"[6]; 10 μM, 30 μM or 100 μM, from PDL 30",23-26 times
same,extension of total life span,"[6]; 10 μM, 30 μM or 100 μM, from PDL 30, fed daily",12-15%
same,PDL at senescence,[6]; 100 μM,55 PDL
same,TRF shortening compared to nil control and 30 μM random oligonucleotide,[7],dose related retardation of TRF shortening
